Laboratory results reported in patent US12282015B2, “Systems and methods for testing and screening using compound bound substrates” (Cerus Corporation, priority 2016, dated 2025).

Test system: human RBC's
Assay: Binding of compound to RBC substrate and stability of the surface-bound moiety, anti-acridine antibody staining by flow cytometry (MFI)
Assay type: cell-based
Settings: at 37° C.; 0.2 mM compound, 2.0 mM GSH, overnight; mAb and polyAb staining
Procedure: A study was performed to assess binding to RBC substrate by the compound 5-220, which is a non-frangible analog of S-303. This study also compared the stability of the surface bound moiety of the 5-220 compound to the stability of a similarly bound frangible S-303. More specifically, glutathione (GSH) quencher and the 5-220 compound were added to human RBC's substrate at concentrations of 2.0 mM and 0.2 mM, respectively, and then incubated overnight at 37° C. or 4° C. For comparison, GSH quencher and the frangible S-303 compound were similarly added to human RBC's at concentrations of 2.0 mM and 0.2 mM, respectively, and incubated overnight at 37° C. or 4° C. Both the non-frangible 5-220 and frangible S-303 compounds comprise an acridine moiety as part of their structures. Following incubation, the GSH/S-220 and GSH/S-303 treated RBC's were stained with either a mouse monoclonal (mAb) or rabbit polyclonal (polyAb) anti-acridine antibody (also at 4° C. or 37° C.), and the samples analyzed for antibody binding by flow cytometry using standard methods (quantitated as MFI). Both the mAb and polyAb anti-acridine antibodies were generated using the compound 5-197 for immunization.

O=C(CCNc1c2ccccc2nc2ccccc12)OCCN(CCCl)CCCl [S-303, β-alanine, N-(acridin-9-yl), 2-[bis(2-chloroethyl)amino]ethyl ester]
stability of binding to RBC's: less stable than 5-220 binding to RBC's
